The record followed here is patent US20020037885A1, “Therapeutic compounds” (priority 1999, published 2002).

What is called melting point is the temperature of the solid-liquid transition.

For series [1], the system named is hyperpolarisation-activated inward cation current Ih in dorsal root ganglion (DRG) cells. Description: Inhibition of hyperpolarisation-activated cation current (Ih), whole cell voltage clamp on cultured DRG cells. Format: cell-based. Conditions: (-) log concentration at which Ih activation rate constant kact is reduced by 50%; mean; rat DRG cells. The procedure:
A) determining the potency of compounds to inhibit the hyperpolarisation-activated inward cation current Ih in dorsal root ganglion (DRG) cells of the rat; the effect is measured as the decrease in Ih activation rate and is expressed as the half maximal effect concentration (IC50) or the negative logarithm of this IC50 (known as pIC50).
To obtain E15 DRGs, pregnant Wistar rats were sacrificed. Embryos were removed and spinal cords with DRG attached to both sides were dissected out and collected in Hanks balanced salt solution (HBSS; Gibco). DRG were separated from the spinal cord and pooled in HBSS without Ca^2+ and Mg^2+. Dissociation of intact DRG was started by incubation with a 0.25% trypsin solution for 30 min at 37° C. Trypsination was stopped by diluting the enzyme and centrifugation (1 min; 2500 rpm). After aspiration of the supernatant the tissue pellet was triturated with DMEMF10 (DMEM supplemented with 10% fetal bovine serum (Hyclone), 6 g/l glucose and 2 mM I-glutamine) and centrifuged for 10 min at 1700 rpm. Dissociated DRG cells were resuspended in culture medium (DMEMF10 with 50 ng/ml NGF 2.5S (Alomone labs)), counted and plated out in a density of 1-2.105 cells on collagen (50 μg/ml) and/or poly-l-lysine (10-20 μg/ml) coated glass coverslips in 24-well tissue culture plates. Plates were kept in a humidified incubator at 37° C. and 5% CO2 for 72 hrs. Glial cell proliferation was inhibited when necessary by adding cytosine arabinoside (Ara-c) at a concentration of 5.10^−7 M. After 3 days fresh culture medium was administered. Medium was subsequently changed every […].
DRG cells were sampled with the whole cell voltage clamp method. Glass electrodes were pulled from thick-walled borosilicate capillaries with filament (1 mm outer diameter). Pipette resistance was 2-5 MΩ. Series resistance (5-15 MΩ) was compensated for to ensure so that potential errors made in the determination of the actual membrane potential were less then 2 mV. Cell capacitance (10-75 pF) compensation was used to compensate for capacitive currents. The extracellular solution contained (in mM): NaCl 140; KCl 5; CaCl2 2; MgCl2 1; D(+) glucose 5.6;HEPES 5; Sucrose 30; pH=7.4. The pipette solution contained (in mM): K-gluconate 119; NaCl 5; KCl 13; CsCl 2; CaCl2 1; EGTA 10;HEPES 10; pH=7.2. Cells were preincubated for more then 1½ hours with different concentrations (1E-9 to 1E-4 M) of test compound dissolved in extracellular solution at room temperature (20° C.) in normal air. Larger cells that appeared round with a pronounced halo under phase-contrast microscopy were selected because almost all of them expressed Ih. Data were acquired with a Digidata 1200® analogue to digital interface using PCLAMP® software (both from Axon Instruments). For Ih activation the cell was held at −63 mV and stepped to −123mV (potentials after correction for liquid junction potential). Current traces were selected for soundness, averaged and fitted to a first order exponential using PCLAMP® software (fit between 60 and 950 ms to avoid biasing by transient currents). Activation time constants (τ) for Ih under different drug concentrations were derived from this fit. The activation rate constant for Ih is defined as kact=1/τ.
The pIC50 is the (-) log concentration of a compound at which the Ih activation rate constant kact is reduced by 50%. pIC50 for a compound could be estimated adequately by fitting kact to the logarithm of the concentration with a logistic function using PRISM® software (Graphpad Inc.). The function chosen is:
kact=A/(1+10^ (log([compound])+pIC50)); A is kact [compound]=0M.
Averaging all control measurements yields that A=3.52 s^−1 and the maximum kact was forced to this value for all compounds in this study. The Hill slope that normally is estimated in concentration-effect relations appeared to be about 1 and was subsequently fixed to this value. […]

The test system of series [2] is marble burying behaviour in mice. In words: Mouse Marble Burying Assay (BUR). Conditions: Mus musculus, sc. Format: in vivo. The procedure:
This assay was carried out essentially according to the procedure described by Treit et al. (1981) Pharmacol Biochem Behav; 15; 619-626.
The results are presented as BUR ED50 (sc). This is the effective dose causing 50% inhibition of burying compared to control mice.

The test system of series [3] is REM sleep in male Wistar rats. In words: Rat Sleep Analysis: suppression of REM sleep. The class given is in vivo. Particulars: first 3 hours after drug administration. How it is done: Suppression of REM sleep in male Wistar rats was measured after treatment with compounds according to the invention or reference antidepressants using the methods described by Ruigt et al.(Electroencephalography and clinic Neurophysiology, 1989, 73, pages 52-63 & 64-71)
The values reported in Table 1 are expressed as percentage change over placebo for the amount of REM sleep in the first 3 hours after drug administration.

The mark [4] stands for this setting: Table 2, read-out: BUR sc ED50(mg/kg).
[5] abbreviates: effective dose causing 50% inhibition of burying compared to control mice, read-out: BUR ED50 (SC).

Read-outs that look alike come from different tables or passages of the source.

`O=C(O)C(=O)O.c1ccc(CNCc2ccccc2-c2noc3ccccc23)cc1` [Example 21(3), 2-(1,2-benzisoxazol-3-yl)-N-benzyl-benzenemethanamine ethanedioate] showed a melting point of 165 °C. The compound also showed a pIC50-Ih in series [1] of 5.06.

On to `C=CCC(N)c1ccccc1-c1nccs1.O=C(O)/C=C/C(=O)O` (stereo not drawn) [16 (4), 2-(thiazol-2-yl)-α-2-propenyl-benzenemethanamine (E)-butenedioate], for which the melting point was in the range of 156 to 161 °C. In series [2] (setting [4]), the ED50 turned out to be 9 mg/kg.

Consider `CN(C)CCC=C1c2ccccc2CCc2ccccc21` [Am, Amitriptyline], for which the results for the “percentage change over placebo for the amount of REM sleep” value (“percentage change over placebo” for short) in series [3] (dose 4.6 mg/kg IP) and in series [3] (dose 10 mg/kg IP) were −22% and −100%, respectively.

With `COCCCC/C(=N\OCCN)c1ccc(C(F)(F)F)cc1` [Fl, Fluvoxamine], the “percentage change over placebo” value in series [3] (dose 4.6 mg/kg IP) is on record as 40%; in series [3] (dose 22 mg/kg IP), −100%.

Compound `C=CCC(N)c1ccccc1-c1noc2ccncc12.O=C(O)/C=C\C(=O)O` (stereo not drawn) [16 (7), 2-(isoxazolo[4,5-c]pyridin-3-yl)-α-2-propenyl-benzenemethanamine (Z)-butenedioate] had a melting point of 151 to 153 °C. In addition, the ED50 in series [2] (setting [4]) worked out at 7.6 mg/kg.

In turn, `CC(O)c1ccccc1-c1noc2ccccc12` (stereo not drawn) [Example 27, 2-(1,2-Benzisoxazol-3-yl)-α-methyl-benzenemethanol] registered a pIC50-Ih in series [1] of 5.50.

For `C=CCC(N)c1ccccc1-c1ccc(Cl)s1.O=C(O)/C=C/C(=O)O` (stereo not drawn) [15 (14), 2-(5-chlorothien-2-yl)-α-2-propenyl-benzenemethanamine (E)-butenedioate], the melting point is 192 to 199 °C. Further, the ED50 in series [2] (setting [4]) was 19 mg/kg.

As to `C=CC[C@@H](N)c1ccccc1-c1noc2cc(Cl)ccc12.Cl` [12(2), (R)-(+)-2-(6-chloro-1,2-benzisoxazol-3-yl)-α-2-propenyl-benzenemethanamine hydrochloride], the melting point was in the range of 144 to 159 °C. In addition, in series [2] (setting [5]), the ED50 was 3.4 mg/kg.

`CCCCC(N)c1ccccc1-c1noc2ccccc12.Cl` (stereo not drawn) [Example 15, 2-(1,2-Benzisoxazol-3-yl)-α-butyl-benzenemethanamine Hydrochloride] registered a pIC50-Ih in series [1] of 5.98.

Regarding `C=CCC(N)c1ccccc1-c1ccc(Cl)cc1F.O=C(O)/C=C/C(=O)O` (stereo not drawn) [15 (37), 2-(4-chloro-2-fluorophenyl)-α-2-propenyl-benzenemethanamine (E)-butenedioate], the melting point lay within 213 to 215 °C. In addition, in series [2] (setting [4]), the ED50 is 9 mg/kg.

For the compound `COc1ccc(C(CN(C)C)C2(O)CCCCC2)cc1` (stereo not shown) [Ve, Venlafaxine], the “percentage change over placebo” value in series [3] (dose 3.2 mg/kg IP) was −77%.

Compound `C=CC[C@H](N)c1ccccc1-c1noc2cc(Cl)ccc12.Cl` [Example 19(2), (S)-(−)-2-(6-chloro-1,2-benzisoxazol-3-yl)-α-2-propenyl-benzenemethanamine hydrochloride] had a melting point of 169 to 178 °C. Moreover, the pIC50-Ih in series [1] was found to be 6.79.

In the case of `C=CC[C@H](N)c1cc(F)ccc1-c1noc2ccccc12.O=C(O)/C=C/C(=O)O` [Example 13(3), (S)-(−)-2-(1,2-benzisoxazol-3-yl)-5-fluoro-α-2-propenyl-benzenemethanamine (E)-butenedioate], the melting point lay within 174 to 176 °C. The pIC50-Ih in series [1] is recorded as 5.98.

Compound `C=CCC(N)c1ccccc1-c1noc2c1CCCC2.O=C(O)/C=C\C(=O)O` (stereo not drawn) [15 (25), 2-(4,5,6,7-tetrahydro-1,2-benzisoxazol-3-yl)-α-2-propenyl-benzenemethanamine (Z)-butenedioate] gave a melting point of 144 to 145 °C. Also, the ED50 in series [2] (setting [4]) is 3.2 mg/kg.

`C=CCC(N)c1ccccc1-c1noc2ccccc12.Cl` (stereo not drawn) [Example 11, 2-(1,2-Benzisoxazol-3-yl)-α-2-propenyl-benzenemethanamine Hydrochloride] had a melting point of 191 °C. In addition, the ED50 in series [2] (setting [5]) was 1.04 mg/kg. Further, the “percentage change over placebo” value in series [3] (dose 0.32 mg/kg IP) is recorded as −44%. Further, in series [3] (dose 1 mg/kg IP), the “percentage change over placebo” value is reported as −88%.

As for `C=CCC(N)c1ccccc1-c1noc2ccc(F)cc12.Cl` (stereo not drawn) [11(3), 2-(5-fluoro-1,2-benzisoxazol-3-yl)-α-2-propenyl-benzenemethanamine hydrochloride], the melting point lay within 209 to 214 °C. In addition, the ED50 in series [2] (setting [5]) amounted to 2.68 mg/kg.

With `Cl.NC(Cc1ccsc1)c1ccccc1-c1noc2ccccc12` (stereo not drawn) [36(2), 2-(1,2-benzisoxazol-3-yl)-α-[(thien-3-yl)-methyl)-benzenemethanamine hydrochloride], the melting point was in the range of 264 to 267 °C. Moreover, the ED50 in series [2] (setting [5]) amounted to 1.2 mg/kg.

For the compound `C=CCC(N)c1ccccc1-c1cncc2ccccc12.O=C(O)/C=C/C(=O)O` (stereo not drawn) [16 (2), 2-(isoquinolin-4-yl)-α-2-propenyl-benzenemethanamine (E)-butenedioate], the melting point fell in the range of 246 to 248 °C. Further, in series [2] (setting [4]), the ED50 came to 9.9 mg/kg.

For the compound `C=CCC(N)c1ccccc1-c1cccc(C(F)(F)F)c1.O=C(O)/C=C/C(=O)O` (stereo not drawn) [15 (34), 2-(3-trifluoromethylphenyl)-α-2-propenyl-benzenemethanamine (E)-butenedioate], the melting point fell in the range of 194 to 196 °C. The ED50 in series [2] (setting [4]) was 6.9 mg/kg.

In the case of `C=CCC(N)c1ccccc1-c1noc2cnccc12.O=C(O)/C=C/C(=O)O` (stereo not drawn) [16 (6), 2-(isoxazolo[5,4-c]pyridin-3-yl)-α-2-propenyl-benzenemethanamine (E)-butenedioate], the melting point fell in the range of 183 to 189 °C. In addition, the ED50 in series [2] (setting [4]) turned out to be 3.8 mg/kg.

Take `C=CCC(N)c1ccccc1-c1ccccc1.Cl` (stereo not drawn) [15 (4), 2-phenyl-α-2-propenyl-benzenemethanamine hydrochloride]: the melting point was in the range of 214 to 218 °C. Also, in series [2] (setting [4]), the ED50 is 8.6 mg/kg.

For the compound `Cl.NC(Cc1ccccc1)c1ccccc1-c1noc2ccccc12` (stereo not drawn) [36(1), 2-(1,2-benzisoxazol-3-yl)-α-benzyl-benzenemethanamine hydrochloride], the melting point was 210 to 246 °C (dec.). For the same compound, the ED50 in series [2] (setting [5]) turned out to be 2.5 mg/kg.

In the case of `O=C(NCCN1CCOCC1)c1ccc(Cl)cc1` [Mo, Moclobemide], the “percentage change over placebo” value was −61% in series [3] (dose 10 mg/kg IP) and −100% in series [3] (dose 32 mg/kg IP).

Consider `Cl.NC(c1ccccc1-c1noc2ccccc12)C1CC=CCC1` (stereo not drawn) [Example 37, 2-(1,2-Benzisoxazol-3-yl)-α-(3-cyclohexenyl)-benzenemethanamine Hydrochloride], for which, in series [2] (setting [5]), the ED50 amounted to 3.1 mg/kg.
